Several values for one entry are separate records, joined by “and”; a condition that tells them apart may be missing. Equal entries are not always repeated. Toxic doses and inconclusive results are not listed.
Test system: P388 leukemia ip, CD2F1 mice, survival T/C
Assay: NCI In Vivo Anticancer Drug Screen. Data for tumor model P388 Leukemia (intraperitoneal) in CD2F1 (CDF1) mice
Conditions: endpoint: median survival time, higher = longer survival
In short: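 Mice carrying the transplanted tumor received test compound or vehicle. Survival was recorded in each group, and the value is the treated-group measurement divided by that of the vehicle-treated control group.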

[1] = dose: 50.0 mg/kg/injection, schedule: Q01DX009 (ip), vehicle: saline with Tween-80
[2] = dose: 100.0 mg/kg/injection, schedule: Q01DX009 (ip), vehicle: saline with Tween-80
[3] = dose: 60.0 mg/kg/injection, schedule: Q01DX005 (ip), vehicle: saline with Tween-80
[4] = dose: 120.0 mg/kg/injection, schedule: Q01DX005 (ip), vehicle: saline with Tween-80
[5] = dose: 240.0 mg/kg/injection, schedule: Q01DX005 (ip), vehicle: saline with Tween-80
[6] = dose: 50.0 mg/kg/injection, schedule: Q01DX009 (ip), vehicle: saline
[7] = dose: 100.0 mg/kg/injection, schedule: Q01DX009 (ip), vehicle: saline
[8] = dose: 200.0 mg/kg/injection, schedule: Q01DX009 (ip), vehicle: saline

N=Nc1c(OC(=O)Nc2cccc(Cl)c2)[nH]c2ccccc12
T/C [1]: 94 % of control | T/C [2]: 90 % of control | T/C (dose: 200.0 mg/kg/injection, schedule: Q01DX009 (ip), vehicle: saline with Tween-80): 93 % of control

COc1ccc(N(C)C(=S)c2ccccc2)cc1
T/C (dose: 50.0 mg/kg/injection, schedule: Q01DX005 (ip), vehicle: Klucel (hydroxypropylcellulose) (HPC)): 103 % of control | T/C (dose: 100.0 mg/kg/injection, schedule: Q01DX005 (ip), vehicle: Klucel (hydroxypropylcellulose) (HPC)): 96 % of control | T/C (dose: 200.0 mg/kg/injection, schedule: Q01DX005 (ip), vehicle: Klucel (hydroxypropylcellulose) (HPC)): 92 % of control

CSc1nc2c(nnn2C2OCC(O)C(O)C2O)c(=O)[nH]1 (configuration not stated)
T/C [3]: 93 % of control | T/C [4]: 93 % of control | T/C [5]: 86 % of control

CC(=O)NC(Cc1ccc(N(CCCl)CCCl)cc1)C(=O)NC(CC(C)C)C(=O)O (configuration not stated)
T/C (dose: 5.0 mg/kg/injection, schedule: Q04DX003 (ip), vehicle: water): 100 % of control | T/C (dose: 8.4 mg/kg/injection, schedule: Q04DX003 (ip), vehicle: saline with Tween-80): 111 % of control | T/C (dose: 10.0 mg/kg/injection, schedule: Q04DX003 (ip), vehicle: water): 95 % of control | T/C (dose: 18.9 mg/kg/injection, schedule: Q04DX003 (ip), vehicle: saline with Tween-80): 121 % of control | T/C (dose: 20.0 mg/kg/injection, schedule: Q04DX003 (ip), vehicle: water): 118 % of control | T/C (dose: 42.6 mg/kg/injection, schedule: Q04DX003 (ip), vehicle: saline with Tween-80): 173 % of control | T/C (dose: 64.0 mg/kg/injection, schedule: Q04DX003 (ip), vehicle: saline with Tween-80): 166 % of control | T/C (dose: 96.0 mg/kg/injection, schedule: Q04DX003 (ip), vehicle: saline with Tween-80): 180 % of control

O=c1oc(NC2CCCCC2)nc2ccccc12
T/C (dose: 60.0 mg/kg/injection, schedule: Q01DX005 (ip), vehicle: Klucel (hydroxypropylcellulose) (HPC)): 93 % of control | T/C (dose: 120.0 mg/kg/injection, schedule: Q01DX005 (ip), vehicle: Klucel (hydroxypropylcellulose) (HPC)): 92 % of control | T/C (dose: 240.0 mg/kg/injection, schedule: Q01DX005 (ip), vehicle: Klucel (hydroxypropylcellulose) (HPC)): 92 % of control

N#C/C(=C\c1c(Cl)cccc1Cl)c1nc(-c2ccc(Cl)cc2)cs1
T/C [6]: 92 % of control | T/C [7]: 92 % of control | T/C [8]: 105 % of control

Cc1cc(=O)[nH]c(N/N=C/c2c(O)ccc3ccccc23)n1
T/C (dose: 12.5 mg/kg/injection, schedule: Q01DX009 (ip), vehicle: saline with Tween-80): 93 % of control | T/C (dose: 25.0 mg/kg/injection, schedule: Q01DX009 (ip), vehicle: saline with Tween-80): 88 % of control | T/C [1]: 87 % of control | T/C [2]: 102 % of control

NC1CC(=O)N(Cc2ccccc2)C1=O (configuration not stated)
T/C (dose: 50.0 mg/kg/injection, schedule: Q01DX005 (ip), vehicle: saline): 97 % of control | T/C (dose: 100.0 mg/kg/injection, schedule: Q01DX005 (ip), vehicle: saline): 91 % of control | T/C (dose: 200.0 mg/kg/injection, schedule: Q01DX005 (ip), vehicle: saline): 93 % of control

CC(C)(COS(C)(=O)=O)COS(C)(=O)=O
T/C [6]: 107 % of control | T/C (dose: 50.0 mg/kg/injection, schedule: Q01DX009 (ip), vehicle: suspension in saline): 96 % of control | T/C [7]: 91 % of control | T/C (dose: 100.0 mg/kg/injection, schedule: Q01DX009 (ip), vehicle: suspension in saline): 101 % of control and 91 % of control | T/C [8]: 110 % of control | T/C (dose: 200.0 mg/kg/injection, schedule: Q01DX009 (ip), vehicle: suspension in saline): 104 % of control and 92 % of control | T/C (dose: 400.0 mg/kg/injection, schedule: Q01DX009 (ip), vehicle: suspension in saline): 112 % of control and 90 % of control

CC(=O)C1=C([Si](C)(C)C)N=NC1(C)C
T/C (dose: 50.0 mg/kg/injection, schedule: Q01DX005 (ip), vehicle: saline with Tween-80): 111 % of control | T/C (dose: 100.0 mg/kg/injection, schedule: Q01DX005 (ip), vehicle: saline with Tween-80): 109 % of control | T/C (dose: 200.0 mg/kg/injection, schedule: Q01DX005 (ip), vehicle: saline with Tween-80): 102 % of control

CCCN1C[C@H](CSC)C[C@@H]2c3cccc4[nH]cc(c34)C[C@H]21
T/C (dose: 6.25 mg/kg/injection, schedule: Q01DX009 (ip), vehicle: Klucel (hydroxypropylcellulose) (HPC)): 103 % of control | T/C (dose: 12.5 mg/kg/injection, schedule: Q01DX009 (ip), vehicle: Klucel (hydroxypropylcellulose) (HPC)): 101 % of control | T/C (dose: 25.0 mg/kg/injection, schedule: Q01DX009 (ip), vehicle: Klucel (hydroxypropylcellulose) (HPC)): 99 % of control

COc1cc2c(c(OC)c1OC)-c1[nH]ncc1CC2
T/C (dose: 25.0 mg/kg/injection, schedule: Q04DX003 (ip), vehicle: Klucel (hydroxypropylcellulose) (HPC)): 100 % of control | T/C (dose: 50.0 mg/kg/injection, schedule: Q04DX003 (ip), vehicle: Klucel (hydroxypropylcellulose) (HPC)): 103 % of control | T/C (dose: 100.0 mg/kg/injection, schedule: Q04DX003 (ip), vehicle: Klucel (hydroxypropylcellulose) (HPC)): 93 % of control and 94 % of control | T/C (dose: 400.0 mg/kg/injection, schedule: Q04DX003 (ip), vehicle: Klucel (hydroxypropylcellulose) (HPC)): 93 % of control

O=C1c2ccccc2C(=O)N1Cc1ccc(CCl)s1
T/C (dose: 15.0 mg/kg/injection, schedule: Q01DX005 (ip), vehicle: saline with Tween-80): 101 % of control | T/C (dose: 30.0 mg/kg/injection, schedule: Q01DX005 (ip), vehicle: saline with Tween-80): 102 % of control | T/C [3]: 100 % of control and 105 % of control | T/C [4]: 119 % of control | T/C [5]: 112 % of control
